Assay results from US20080234288A1, “Hcv Inhibiting Sulfonamides” (priority 2003, published 2008).
Structures can show the parent of a compound that is named as a salt.

These compounds were tested on HCV replicon (NS3-NS5B regions of HCV type 1b) in Huh-7 luc/neo cells (assay: HCV replicon assay, stable replicon cell reporter assay (Huh-Luc, luciferase)). Settings: Hepatitis C virus, Huh-7, 72 h, incubation of three days, luciferase activity.
Type: cell-based
From the text: The compounds of the present invention were examined for activity in the inhibition of HCV RNA replication in a cellular assay. […] The cellular assay was based on a bicistronic expression construct, as described by Lohmann et al. (1999) Science vol. 285 pp. 110-113 with modifications described by Krieger et al. (2001) Journal of Virology 75: 4614-4624, in a multi-target screening strategy. In essence, the method is as follows.
The assay utilized the stably transfected cell line Huh-7 luc/neo (hereafter referred to as Huh-Luc; kindly provided by Dr Ralf Bartenschlager, Reblikon GmBh, Germany). This cell line harbors an RNA encoding a bicistronic expression construct comprising the wild type NS3-NS5B regions of HCV type 1b translated from an Internal Ribosome Entry Site (IRES) from encephalomyocarditis virus (EMCV), preceded by a reporter portion (FfL-luciferase), and a selectable marker portion (neo^R, neomycine phosphotransferase). The construct was bordered by 5′ and 3′ NTRs (non-translated regions) from HCV type 1b. Continued culture of the replicon cells in the presence of G418 (neo^R) is dependent on the replication of the HCV RNA. The stably transfected replicon cells that express HCV RNA, which replicates autonomously and to high levels, encoding inter alia luciferase, were used for screening the antiviral compounds.
The replicon cells were plated in 384 well plates in the presence of the test and control compounds which were added in various concentrations. Following an incubation of three days, HCV replication was measured by assaying luciferase activity (using standard luciferase assay substrates and reagents and a Perkin Elmer ViewLux™ ultraHTS microplate imager). Replicon cells in the control cultures have high luciferase expression in the absence of any inhibitor. The inhibitory activity of the compound on luciferase activity was monitored on the Huh-Luc cells, enabling a dose-response curve for each test compound. EC50 values were then calculated, which value represents the amount of the compound required to decrease by 50% the level of detected luciferase activity, or more specifically, the ability of the genetically linked HCV replicon RNA to replicate (Table 1).
Compound CC(=O)N(C)c1nc2ccc(S(=O)(=O)N(CC(C)C)CC(O)C(Cc3ccccc3)NC(=O)OCc3cncs3)cc2s1 (centres unmarked) [Compound 21, (3-{[2-(Acetyl-methyl-amino)-benzothiazole-6-sulfonyl]-isobutyl-amino}-1-benzyl-2-hydroxy-propyl)-carbamic acid thiazol-5-ylmethyl ester] has an EC50 of 10 to 32 µM. Nc1nc2ccc(S(=O)(=O)N(Cc3ccccn3)CC(O)C(Cc3ccccc3)NC(=O)OCc3cncs3)cc2o1 (centres unmarked) [Compound 22, {3-[(2-Amino-benzooxazole-6-sulfonyl)-pyridin-2-ylmethyl-amino]-1-benzyl-2-hydroxy-propyl}-carbamic acid thiazol-5-ylmethyl ester trifluoroacetate salt] was tested, and the EC50 was greater than 32 µM. CC(C)CN(CC(O)C(Cc1ccccc1)NC(=O)OCc1cncs1)S(=O)(=O)c1ccc2nc(NC(=O)c3ccoc3)oc2c1 (centres unmarked) [Compound 25, [1-Benzyl-3-({2-[(furan-3-carbonyl)-amino]-benzooxazole-6-sulfonyl}-isobutyl-amino)-2-hydroxy-propyl]-carbamic acid thiazol-5-ylmethyl ester] gave an EC50 of less than 2 µM. For CC(C)CN(CC(O)C(Cc1ccccc1)NC(=O)OCc1cncs1)S(=O)(=O)c1ccc2nc(NC(=O)C3CCN(C)CC3)oc2c1 (centres unmarked) [Compound 26, [1-Benzyl-2-hydroxy-3-(isobutyl-{2-[(1-methyl-piperidine-4-carbonyl)-amino]-benzooxazole-6-sulfonyl}-amino)-propyl]-carbamic acid thiazol-5-ylmethyl ester], the EC50 was 10 to 32 µM. CC(C)CN(CC(O)C(Cc1ccccc1)NC(=O)OCc1cncs1)S(=O)(=O)c1ccc2nc(NC(=O)c3ccccn3)oc2c1 (centres unmarked) [Compound 27, [1-Benzyl-2-hydroxy-3-(isobutyl-{2-[(pyridine-2-carbonyl)-amino]-benzooxazole-6-sulfonyl}-amino)-propyl]-carbamic acid thiazol-5-ylmethyl ester] was tested, and the EC50 was 2 to 10 µM. In the case of CC(C)CN(CC(O)C(Cc1ccccc1)NC(=O)OCc1cnc(Cl)s1)S(=O)(=O)c1ccc2nc(N)oc2c1 (centres unmarked) [Compound 28, {3-[(2-Amino-benzooxazole-6-sulfonyl)-isobutyl-amino]-1-benzyl-2-hydroxy-propyl}-carbamic acid 2-chloro-thiazol-5-ylmethyl ester], the EC50 is reported as 2 to 10 µM. CC(C)CN(CC(O)C(Cc1ccccc1)NC(=O)OCc1cncs1)S(=O)(=O)c1ccc2nc(NC(=O)CN(C)C)oc2c1 (centres unmarked) [Compound 29, (1-Benzyl-3-{[2-(2-dimethylamino-acetylamino)-benzo-oxazole-6-sulfonyl]-isobutyl-amino}-2-hydroxy-propyl)-carbamic acid thiazol-5-ylmethyl ester] showed an EC50 of 2 to 10 µM. In the case of CC(C)CN(CC(O)C(Cc1ccccc1)NC(=O)OCc1cncs1)S(=O)(=O)c1ccc2nc(N3CCNCC3)oc2c1 (centres unmarked) [Compound 30, {1-Benzyl-2-hydroxy-3-[isobutyl-(2-piperazin-1-yl-benzo-oxazole-6-sulfonyl)-amino]-propyl}-carbamic acid thiazol-5-ylmethyl ester], the EC50 is reported as 2 to 10 µM. In the case of CC(C)CN(CC(O)C(Cc1ccccc1)NC(=O)OCc1cncs1)S(=O)(=O)c1ccc2nc(N3CCCCC3)oc2c1 (centres unmarked) [Compound 31, {1-Benzyl-2-hydroxy-3-[isobutyl-(2-piperidin-1-yl-benzo-oxazole-6-sulfonyl)-amino]-propyl}-carbamic acid thiazol-5-ylmethyl ester], the EC50 is reported as 2 to 10 µM. With CC(C)CN(CC(O)C(Cc1ccccc1)NC(=O)OCc1cncs1)S(=O)(=O)c1ccc2nc(NC(=O)CN(C)CCN3CCCC3)oc2c1 (centres unmarked) [Compound 32, {1-Benzyl-2-hydroxy-3-[isobutyl-(2-{2-[methyl-(2-pyrrolidin-1-yl-ethyl)-amino]-acetylamino}-benzooxazole-6-sulfonyl)-amino]-propyl}-carbamic acid thiazol-5-ylmethyl ester] the EC50 was 10 to 32 µM. For CC(C)CN(CC(O)C(Cc1ccccc1)NC(=O)OCc1cncs1)S(=O)(=O)c1ccc2nc(N(C)C)oc2c1 (centres unmarked) [Compound 33, {1-Benzyl-3-[(2-dimethylamino-benzooxazole-6-sulfonyl)-isobutyl-amino]-2-hydroxy-propyl}-carbamic acid thiazol-5-ylmethyl ester], the EC50 was 10 to 32 µM. Work on CC(C)CN(CC(O)C(Cc1ccccc1)NC(=O)OCc1cnco1)S(=O)(=O)c1ccc2nc(N)oc2c1 (centres unmarked) [Compound 34, {3-[(2-Amino-benzooxazole-6-sulfonyl)-isobutyl-amino]-1-benzyl-2-hydroxy-propyl}-carbamic acid oxazol-5-ylmethyl ester] yielded an EC50 of 10 to 32 µM. Work on CC(C)CN(CC(O)C(Cc1ccccc1)NC(=O)OCc1cncs1)S(=O)(=O)c1ccc2nc(NC(=O)c3ccncc3)oc2c1 (centres unmarked) [Compound 35, [1-Benzyl-2-hydroxy-3-(isobutyl-{2-[(pyridine-4-carbonyl)-amino]-benzooxazole-6-sulfonyl}-amino)-propyl]-carbamic acid thiazol-5-ylmethyl ester] yielded an EC50 of less than 2 µM. CC(C)CN(CC(O)C(Cc1ccccc1)NC(=O)OCc1cncs1)S(=O)(=O)c1ccc2nc(N(C)C(=O)c3ccccn3)oc2c1 (centres unmarked) [Compound 36, [1-Benzyl-2-hydroxy-3-(isobutyl-{2-[methyl-(pyridine-2-carbonyl)-amino]-benzooxazole-6-sulfonyl}-amino)-propyl]-carbamic acid thiazol-5-ylmethyl ester] was tested, and the EC50 was 10 to 32 µM. For CC(C)CN(CC(O)C(Cc1ccccc1)NC(=O)OCc1cncs1)S(=O)(=O)c1ccc2nc(N(C)C(=O)C3CCCN(C)C3)oc2c1 (centres unmarked) [Compound 37, [1-Benzyl-2-hydroxy-3-(isobutyl-{2-[methyl-(1-methyl-piperidine-3-carbonyl)-amino]-benzooxazole-6-sulfonyl}-amino)-propyl]-carbamic acid thiazol-5-ylmethyl ester], the EC50 was 10 to 32 µM. In the case of CC(C)CN(CC(O)C(Cc1ccccc1)NC(=O)OCc1cncs1)S(=O)(=O)c1ccc2nc(N(C)C(=O)C3CCN(C)CC3)oc2c1 (centres unmarked) [Compound 38, [1-Benzyl-2-hydroxy-3-(isobutyl-{2-[methyl-(1-methyl-piperidine-4-carbonyl)-amino]-benzooxazole-6-sulfonyl}-amino)-propyl]-carbamic acid thiazol-5-ylmethyl ester], the EC50 is reported as 10 to 32 µM. In the case of CC(C)CN(CC(O)C(Cc1ccccc1)NC(=O)OCc1cncs1)S(=O)(=O)c1ccc2nc(N(C)C(=O)c3ccnc(Cl)c3)oc2c1 (centres unmarked) [Compound 39, [1-Benzyl-3-({2-[(2-chloro-pyridine-4-carbonyl)-methyl-amino]-benzooxazole-6-sulfonyl}-isobutyl-amino)-2-hydroxy-propyl]-carbamic acid thiazol-5-ylmethyl ester], the EC50 is reported as 10 to 32 µM. Compound CC(C)CN(CC(O)C(Cc1ccccc1)NC(=O)OCc1cncs1)S(=O)(=O)c1ccc2nc(N(C)C(=O)C3CCCN3C)oc2c1 (centres unmarked) [Compound 40, [1-Benzyl-2-hydroxy-3-(isobutyl-{2-[methyl-(1-methyl-pyrrolidine-2-carbonyl)-amino]-benzooxazole-6-sulfonyl}-amino)-propyl]-carbamic acid thiazol-5-ylmethyl ester trifluoroacetate salt] has an EC50 of 10 to 32 µM. Work on CC(C)CN(CC(O)C(Cc1ccccc1)NC(=O)OCc1cncs1)S(=O)(=O)c1ccc2ncn(CCc3ccccc3)c2c1 (centres unmarked) [Compound 41, {1-Benzyl-2-hydroxy-3-[isobutyl-(3-phenethyl-3H-benzo-imidazole-5-sulfonyl)-amino]-propyl}-carbamic acid thiazol-5-ylmethyl ester] yielded an EC50 of 10 to 32 µM. CC(C)CN(CC(O)C(Cc1ccccc1)NC(=O)OCc1cncs1)S(=O)(=O)c1ccc2ncn(CC(C)C)c2c1 (centres unmarked) [Compound 42, {1-Benzyl-2-hydroxy-3-[isobutyl-(3-isobutyl-3H-benzo-imidazole-5-sulfonyl)-amino]-propyl}-carbamic acid thiazol-5-ylmethyl ester] gave an EC50 of 2 to 10 µM. With CC(C)CN(CC(O)C(Cc1ccccc1)NC(=O)OCc1cncs1)S(=O)(=O)c1ccc(-c2csc(Nc3ccncc3)n2)cc1 (centres unmarked) [Compound 43, [1-Benzyl-2-hydroxy-3-(isobutyl-{4-[2-(pyridin-4-ylamino)-thiazol-4-yl]-benzenesulfonyl}-amino)-propyl]-carbamic acid thiazol-5-ylmethyl ester] the EC50 was less than 2 µM.

Same assay, conditions: incubation of three days, luciferase activity
CC(C)CN(CC(O)C(Cc1ccccc1)NC(=O)OCc1cncs1)S(=O)(=O)c1ccc2nc(NC(=O)C3CCC(=O)N3)oc2c1 (centres unmarked) [Compound 23, [1-Benzyl-2-hydroxy-3-(isobutyl-{2-[(5-oxo-pyrrolidine-2-carbonyl)-amino]-benzooxazole-6-sulfonyl}-amino)-propyl]-carbamic acid thiazol-5-yl methyl ester] was tested, and the EC50 was 10 to 32 µM. Work on CC(C)CN(CC(O)C(Cc1ccccc1)NC(=O)OCc1cncs1)S(=O)(=O)c1ccc2nc(NC(=O)C3CCC(=O)N3)oc2c1 (centres unmarked) [Compound 24, [1-Benzyl-2-hydroxy-3-(isobutyl-{2-[(5-oxo-pyrrolidine-2-carbonyl)-amino]-benzooxazole-6-sulfonyl}-amino)-propyl]-carbamic acid thiazol-5-yl methyl ester] yielded an EC50 of 2 to 10 µM.
